According to patent publication US20250281610A1, “P2RY2 ACTIVITY MODULATORS” (Deutsches Krebsforschungszentrum Stiftung des öffentlichen …, priority 2022, published 2025):

Key:
B7-H3 = assay: Flow cytometry analysis of B7-H3 expression after ATP or UTP stimulation; assay type: cell-based, human; details: for B7-H3 expression: P2RY2 proficient cells (THP-1, FIG. 3) stimulated with ATP or UTP for 24 hours
Source text: FIG. 2. Flow cytometry analysis of B7-H3 expression in wildtype (WT) and P2RY2-deficient bulk THP-1, U937, KBM7, and K562 cells (P2RY2-3 KO and P2RY2-4 KO) in the absence or presence of ATP. Values indicate MFI relative to untreated WT cells.
FIG. 3. Flow cytometry analysis of B7-H3 expression in THP-1 cells in the absence or presence of ATP. Values indicate MFI relative to untreated cells.
THP-1 cells, U937 cells, K562 cells, and KBM7 cells were transduced with a lentiviral vector encoding Cas9 along with a Blasticidin S resistance cassette ([…] deaminase). One day after the transduction, cells were selected with 50 microgram/milliliter Blasticidin S Hydrochloride for […]. Next, surviving cells were transduced with one of the lentiviral vectors encoding sgRNA targeting the sequences 5′-[…]-3′ (SEQ ID NO:6) and 5′-[…]-3′ (SEQ ID NO:7) on the coding strand of P2RY2 gene, along with a puromycin resistance cassette (puromycin N-acetyltransferase). One day after the transduction, cells were selected with 2 microgram/milliliter Puromycin dihydrochloride for 48-96 hours. Selected cells were expanded, subjected to genomic DNA isolation, and analyzed for deleterious editing of the P2RY2 locus by PCR (using primers 5′-[…]-3′ (SEQ ID NO:8) and 5′-[…]-3′ (SEQ ID NO:9)) and Sanger sequencing of the PCR products using primer 5′-[…]-3′ (SEQ ID NO:8) for the sgRNA(5′-[…]-3′, SEQ ID NO:6)) transduced cell and 5′-[…]-3′ (SEQ ID NO:9) for the sgRNA(5′-[…]-3′, SEQ ID NO:7) transduced cell.
The polyclonal cells transduced with Cas9 and sgRNA targeting P2RY2, and wildtype cells were cultured in the absence or presence of ATP or UTP (ligands of P2RY2, Sigma) for 24 hours, stained with anti-B7-H3 antibody and analyzed by flow cytometry.

[1] = test system: CEA-specific CAR transduced T cells co-cultured with SW480 cells; assay: T cell activation in co-culture of CEA-specific CAR-T cells with SW480 cells; assay type: cell-based, human; details: 40 μM ATP, 200 μM ATPγS, 10 μM Diquafosol, 5 μM Denufosol, 24 hours (FIG. 19)
Protocol: FIG. 19. Effects of P2RY2 agonist and P2RY2 antagonist on T cell activity in T cell-cancer cell co-cultures. T cells transduced with a CEA-specific CAR (CAR-T) were co-cultured with genetically edited SW480 cells for 24 hours in the absence or presence of 40 μM ATP, 200 μM ATPγS, 10 μM Diquafosol, 5 μM Denufosol and 10 μM AR-C 118925XX (AR-C). Control cells: SW480 cells transduced with non-targeting sgRNA and Cas9 (gNT); P2RY2 deficient cells: SW480 cells transduced with P2RY2-targeting sgRNA and Cas9 (gP2RY2-3, gP2RY2-4); B7-H3 (CD276) deficient cells: SW480 cells transduced with B7-H3-targeting sgRNA and Cas9 (gCD276-1); P2RY2 and B7-H3 double deficient cells: SW480 cells transduced with P2RY2-targeting sgRNA, B7-H3-targeting sgRNA, and Cas9 (gCD276-1 gP2RY2-3 DKO, gCD276-1 gP2RY2-4 DKO); P2RY2 overexpression cells: SW480 cells transduced with the open reading frame of P2RY2 (P2RY2-OE); B7-H3 overexpression cells: SW480 cells transduced with the open reading frame of CD276 (CD276-OE). Transduced cancer cells were selected by antibiotics according to antibiotic resistance genes carried by the lentiviral constructs. Flow cytometry analysis of expression of CD25 and CD69 and production of IFNγ within the CD3+CD8+ or CD3+CD4+ cell population is shown (values indicate the percentages of positive cells).
(§1) MART-1 specific T cells were generated as described (Mezzadra et al., Nature 549, 106-110 (2017); Jorritsma et al., Blood 110 (10): 3564-3572. (2007)). To generate CD33-specific chimeric antigen receptor (CAR) T cells and CEA-specific CAR-T cells, a CD33Hul95-CD28Z CAR (described in WO 2019/178382) cassette and MFE-23 (described in US20050147614A1)-CD28Z CAR were separately cloned into retroviral vectors, and the resulting virus was used to transduce T cells as described (Mezzadra et al., Nature 549, 106-110 (2017); Jorritsma et al., Blood 110 (10): 3564-3572. (2007)).
The open reading frames of transcripts of P2RY2 (ENST00000393597.7) or CD276 (ENST00000318443.10), were ordered as a codon optimized gBlock Gene Fragment (Integrated DNA Technologies or Twist Bioscience) and cloned into a lentiviral vector containing a blasticidin selection cassette. Constructs were verified by Sanger sequencing.
(§2) MART1-specific CD8+ T cells and MART1 epitope-expressing cancer cells were mixed at a ratio of 1:16 to 1:1. CD33 CAR-T cells and CD33 expressing THP-1 cells were mixed at a ratio of 1:16 to 1:4. CEA CAR-T cells and CEA expressing SW480 cells were mixed at a ratio of 1:1. Next, cells were centrifugated at 1,600 g for 3 min and incubated at 37° C. and 5% CO2 for 12-72 hours. T cell activation was assessed by surface staining with anti-CD137-BV421 (4-1BB, Biolegend), anti-CD137-PE/Cy7 (4-1BB, Biolegend), anti-CD69-APC/Fire™ 750 (FN50, Biolegend), anti-CD25-AF700 (BC96, Biolegend), anti-CD25-APC (BC96, Biolegend) antibodies and intracellular staining with anti-IL-2-PE/Cy7 (MQ1-17H12, Biolegend), anti-IFN-7-BV421 (4S.B3, Biolegend), anti-TNF-α-BV785 (MAb11, Biolegend), anti-TNF-α-APC (MAb11, Biolegend) antibodies, followed by flow cytometry analysis. For intracellular staining, brefeldin A (Biolegend) was added to the cell culture medium 4 h before cells were harvested. The viability of cancer cells that grow in suspension including THP-1 cells was assessed by flow cytometry-based absolute cell counting using AccuCount beads (Spherotech). For adherent cancer cells including BxPC3, MIA PaCa-2, MDA-MB-231 and MCF7, the cell viability was quantified using CellTiter-Blue Cell Viability Assay (Promega).

THP-1 cells = assay: Viability of THP-1 cells in co-culture with CD33-specific CAR-T cells (flow cytometry-based cell counting); set-up: species or system human; details: 100 uM Diquafosol, 24 hours, co-culture with CD33-specific CAR-T cells (FIG. 9)
Protocol: FIG. 8. Effects of P2RY2 antagonist on T cells and cancer cells in T cell-cancer cell co-cultures. T cells transduced with CD33-specific CAR (CAR-T) were co-cultured with genetically edited THP-1 cells in the absence or presence of 5 μM AR-C 118925XX (AR-C) for 6-24 hours. Control cells: THP-1 cells transduced with non-targeting sgRNA and Cas9 (gNT); P2RY2 deficient cells: THP-1 cells transduced with P2RY2-targeting sgRNA and Cas9 (gP2RY2-3, gP2RY2-4); B7-H3 (CD276) deficient cells: THP-1 cells transduced with B7-H3-targeting sgRNA and Cas9 (gCD276-1); P2RY2 and B7-H3 double deficient cells: THP-1 cells transduced with P2RY2-targeting sgRNA, B7-H3-targeting sgRNA, and Cas9 (gCD276-1 gP2RY2-3 DKO, gCD276-1 gP2RY2-4 DKO); P2RY2 overexpression cells: THP-1 cells transduced with the open reading frame of P2RY2 (P2RY2-OE); B7-H3 overexpression cells: THP-1 cells transduced with the open reading frame of CD276 (CD276-OE). […]
FIG. 9. […] Control cells THP-1 cells transduced with non-targeting sgRNA and Cas9 (Ctrl.); P2RY2 overexpression cells: THP-1 cells transduced with the open reading frame of P2RY2 (P2RY2-OE). […]
The open reading frames of transcripts of P2RY2(ENST00000393597.7) or CD276(ENST00000318443.10), were ordered as a codon optimized gBlock Gene Fragment (Integrated DNA Technologies or Twist Bioscience) and cloned into a lentiviral vector containing a blasticidin selection cassette. […]
MART1-specific CD8+ T cells and MART1 epitope-expressing cancer cells were mixed at a ratio of 1:16 to 1:4. […] T cell activation was assessed by surface staining with anti-CD137-BV421 (4-1BB, Biolegend), anti-CD69-APC/Fire™ 750 (FN50, Biolegend), anti-CD25-AF700 (BC96, Biolegend) antibodies and intracellular staining with anti-IL-2-PE/Cy7 (MQ1-17H12, Biolegend), anti-IFN-7-BV421 (4S.B3, Biolegend), anti-TNF-α-BV785 (MAb11, Biolegend) antibodies, followed by flow cytometry analysis. […] The viability of cancer cells that grow in suspension including THP-1 cells was assessed by flow cytometry-based absolute cell counting using AccuCount beads (Spherotech). […]

BxPC3 cells = assay: Viability of BxPC3 cells in co-culture with MART-1-specific TCR-T cells (CellTiter-Blue); assay type: cell-based, human; details: single agent: 5 μM AR-C, 10 μg/ml atezolizumab or 10 μg/ml durvalumab, 6-24 hours (FIG. 11)
Source text: FIG. 11. […] Untreated cells served as the control.
as §1, with “T” for “T cells and CEA-specific CAR-T”, “was” for “and MFE-23 (described in US20050147614A1)-CD28Z CAR were separately”, “into a” for “into”, “vector,” for “vectors,”
as §2, with “to” for “to 1:1. CD33 CAR-T cells and CD33 expressing THP-1 cells were mixed at a ratio of 1:16 to”, “1:4.” for “1:4. CEA CAR-T cells and CEA expressing SW480 cells were mixed at a ratio of 1:1.”, “Biolegend),” for “Biolegend), anti-CD137-PE/Cy7 (4-1BB, Biolegend),”, “anti-CD25-AF700” for “anti-CD25-AF700 (BC96, Biolegend), anti-CD25-APC”, “anti-TNF-α-BV785” for “anti-TNF-α-BV785 (MAb11, Biolegend), anti-TNF-α-APC”, “BxPC3” for “BxPC3, MIA PaCa-2, MDA-MB-231”

| Compound | B7-H3 expression (B7-H3) | T cell activation [1] | also measured |
| --- | --- | --- | --- |
| Nc1ncnc2c1ncn2[C@@H]1O[C@H](COP(=O)(O)OP(=O)(O)OP(=O)(O)O)[C@@H](O)[C@H]1O [ATP] | increased B7-H3 expression in a dose-dependent manner | repressed | ATP-induced B7-H3 surface expression upon P2RY2 disruption (B7-H3; P2RY2-deficient THP-1, U937, KBM7, K562 cells, presence of ATP (FIG. 2)): abrogated |
| Nc1ncnc2c1ncn2[C@@H]1O[C@H](COP(=O)(O)OP(=O)(O)OP(O)(O)=S)[C@@H](O)[C@H]1O [Adenosine-5′-(γ-thio)-triphosphate] |  | repressed |  |
| Nc1ccn([C@H]2C[C@H](O)[C@@H](COP(=O)(O)OP(=O)(O)OP(=O)(O)OP(=O)(O)OC[C@H]3O[C@@H](n4ccc(=O)[nH]c4=O)[C@H](O)[C@@H]3O)O2)c(=O)n1 [Denufosol] |  | repressed |  |
| O=c1ccn([C@@H]2O[C@H](COP(=O)(O)OP(=O)(O)OP(=O)(O)OP(=O)(O)OC[C@H]3O[C@@H](n4ccc(=O)[nH]c4=O)[C@H](O)[C@@H]3O)[C@@H](O)[C@H]2O)c(=O)[nH]1 [Diquafosol] |  | repressed | T cell-mediated cytotoxicity in THP-1 cells (THP-1 cells): confers resistance |
| O=c1ccn([C@@H]2O[C@H](COP(=O)(O)OP(=O)(O)OP(=O)(O)O)[C@@H](O)[C@H]2O)c(=O)[nH]1 [UTP] | increased B7-H3 expression in a dose-dependent manner |  |  |
| atezolizumab: Blocking antibody of the PD-L1-PD-1 immune checkpoint |  |  | viability of BxPC3 cells (BxPC3 cells): reduced |
